Laboratory results from patent US20230212116A1, “SARS-COV-2 MAIN PROTEASE INHIBITORS” (TEXAS A&M UNIVERSITY SYSTEM, priority 2020, published 2023).
Read-outs that look alike come from different tables or passages of the source.

Biological target: SARS-CoV-2 M^Pro (Severe acute respiratory syndrome coronavirus 2, UniProt P0DTD1)
Experiment: biochemical
Format: biochemical

SMILES	IC50 (read-out: Enzymatic IC50) [nM]	also measured
C=CC(=O)N(Cc1cc(=O)[nH]c(=O)[nH]1)NC(=O)[C@H](CC(C)C)NC(=O)[C@@H](NC(=O)OCc1ccccc1)C(C)C [MPI35, benzyl ((S)-1-(((S)-1-(2-acryloyl-2-((2,6-dioxo-1,2,3,6-tetrahydropyrimidin-4-yl)methyl)hydrazineyl)-4-methyl-1-oxopentan-2-yl)amino)-3-methyl-1-oxobutan-2-yl)carbamate]	4280 ± 278	
CC(C)(C)NC(=O)N[C@H](C(=O)N1C[C@H]2[C@@H]([C@H]1C(=O)N[C@@H](C[C@@H]1CCNC1=O)C(=O)C(=O)NCc1ccccc1)C2(C)C)C(C)(C)C [MPI63, (1R,2S,5S)-N-((S)-4-(benzylamino)-3,4-dioxo-1-((S)-2-oxopyrrolidin-3-yl)butan-2-yl)-3-((S)-2-(3-(tert-butyl)ureido)-3,3-dimethylbutanoyl)-6,6-dimethyl-3-azabicyclo[3.1.0]hexane-2-carboxamide]	103 ± 1.5	
CC(C)C[C@H](NC(=O)OCc1ccccc1)C(=O)NN(CCC(N)=O)C(=O)Oc1ccc(F)cc1 [MPI47, 4-fluorophenyl 1-(3-amino-3-oxopropyl)-2-(((benzyloxy)carbonyl)-L-leucyl)hydrazine-1-carboxylate]		IC50: 1040 nM
CC(C)C[C@H](NC(=O)OCc1ccccc1)C(=O)NN(CCC(N)=O)C(=O)OCC(F)(F)F [MPI46, 2,2,2-trifluoroethyl 1-(3-amino-3-oxopropyl)-2-(((benzyloxy)carbonyl)-L-leucyl)hydrazine-1-carboxylate]		IC50: > 10000 nM
C=CC(=O)N(CCC(N)=O)NC(=O)[C@H](CC(C)C)NC(=O)OCc1ccccc1 [MPI38, benzyl (S)-(1-(2-acryloyl-2-(3-amino-3-oxopropyl)hydrazineyl)-4-methyl-1-oxopentan-2-yl)carbamate]	640	
C=CC(=O)N(C[C@@H]1CCC(=O)N1)NC(=O)[C@@H]1[C@@H]2[C@H](CN1C(=O)[C@@H](NC(=O)NC(C)(C)C)[C@@H](C)OC(C)(C)C)C2(C)C [MPI69, 1-((2S,3R)-1-((1R,2S,5S)-2-(2-acryloyl-2-(((S)-5-oxopyrrolidin-2-yl)methyl)hydrazine-1-carbonyl)-6,6-dimethyl-3-azabicyclo[3.1.0]hexan-3-yl)-3-(tert-butoxy)-1-oxobutan-2-yl)-3-(tert-butyl)urea]	> 2000	
CC(C)[C@H](NC(=O)OCc1ccccc1)C(=O)N[C@@H](Cc1cccs1)C(=O)N[C@H](C=O)C[C@@H]1CCNC1=O [MPI13, Benzyl ((S)-3-methyl-1-oxo-1-(((S)-1-oxo-1-(((S)-1-oxo-3-((S)-2-oxopyrrolidin-3-yl)propan-2-yl)amino)-3-(thiophen-2-yl)propan-2-yl)amino)butan-2-yl)carbamate]		Enzymatic IC50 (20 nM enzyme (10 nM for MPI3), 10 μM substrate, 37° C., 30 min enzyme-inhibitor incubation): (insoluble)
CC(C)C[C@H](NC(=O)OCc1ccccc1)C(=O)NN(CCC(N)=O)C(=O)[C@@H](C)Cl [MPI39, benzyl ((S)-1-(2-(3-amino-3-oxopropyl)-2-((R)-2-chloropropanoyl)hydrazineyl)-4-methyl-1-oxopentan-2-yl)carbamate]	5038 ± 13	
C[C@@H](OC(C)(C)C)[C@H](NC(=O)OCc1cccc(F)c1)C(=O)N[C@@H](CC1CCCCC1)C(=O)N[C@H](C=O)C[C@@H]1CCNC1=O [MPI102, 3-fluorobenzyl ((2S,3R)-3-(tert-butoxy)-1-(((S)-3-cyclohexyl-1-oxo-1-(((S)-1-oxo-3-((S)-2-oxopyrrolidin-3-yl)propan-2-yl)amino)propan-2-yl)amino)-1-oxobutan-2-yl)carbamate]	307	
C=CC(=O)N(CCC(N)=O)NC(=O)[C@@H]1[C@@H]2[C@H](CN1C(=O)[C@@H](NC(=O)NC(C)(C)C)[C@@H](C)OC(C)(C)C)C2(C)C [MPI70, 3-(1-acryloyl-2-((1R,2S,5S)-3-(O-(tert-butyl)-N-(tert-butylcarbamoyl)-L-threonyl)-6,6-dimethyl-3-azabicyclo[3.1.0]hexane-2-carbonyl)hydrazineyl)propanamide]	136 ± 17	
C=CC(=O)N(CCC(N)=O)NC(=O)[C@H](CC1CCCCC1)NC(=O)[C@@H](NC(=O)OCc1ccccc1)[C@@H](C)OC(C)(C)C [MPI52, benzyl ((2S,3R)-1-(((S)-1-(2-acryloyl-2-(3-amino-3-oxopropyl)hydrazineyl)-3-cyclohexyl-1-oxopropan-2-yl)amino)-3-(tert-butoxy)-1-oxobutan-2-yl)carbamate]	61 ± 1.2	
CCC(=O)N(CCC(N)=O)NC(=O)[C@H](CC(C)C)NC(=O)OCc1ccccc1 [MPI36, benzyl (S)-(1-(2-(3-amino-3-oxopropyl)-2-propionylhydrazineyl)-4-methyl-1-oxopentan-2-yl)carbamate]	> 10000	
CC(C)C[C@H](NC(=O)OCc1ccccc1)C(=O)NN(CCC(N)=O)C(=O)c1cc([N+](=O)[O-])ccc1F [MPI41, benzyl (S)-(1-(2-(3-amino-3-oxopropyl)-2-(2-fluoro-5-nitrobenzoyl)hydrazineyl)-4-methyl-1-oxopentan-2-yl)carbamate]	39000	
C[C@@H](OC(C)(C)C)[C@H](NC(=O)OCc1ccccc1)C(=O)N[C@@H](CC1CCCCC1)C(=O)N[C@@H](C[C@@H]1CCNC1=O)C(=O)C(N)=O [MPI86, benzyl ((2S,3R)-1-(((S)-1-(((S)-4-amino-3,4-dioxo-1-((S)-2-oxopyrrolidin-3-yl)butan-2-yl)amino)-3-cyclohexyl-1-oxopropan-2-yl)amino)-3-(tert-butoxy)-1-oxobutan-2-yl)carbamate]	167 ± 14	
CC(C)[C@H](NC(=O)NC(C)(C)C)C(=O)N[C@@H](CC1CC1)C(=O)N[C@H](C=O)C[C@@H]1CCNC1=O [MPI64, (S)-2-(3-(tert-butyl)ureido)-N-((S)-3-cyclopropyl-1-oxo-1-(((S)-1-oxo-3-((S)-2-oxopyrrolidin-3-yl)propan-2-yl)amino)propan-2-yl)-3-methylbutanamide]	26.1 ± 1.4	
CC(C)C[C@H](NC(=O)[C@@H](NC(=O)OCc1ccccc1)C(C)C)C(=O)N[C@@H](C[C@@H]1CCNC1=O)C(O)C#N (stereo partly drawn) [MPI66, benzyl ((2S)-1-(((2S)-1-(((2S)-1-cyano-1-hydroxy-3-((S)-2-oxopyrrolidin-3-yl)propan-2-yl)amino)-4-methyl-1-oxopentan-2-yl)amino)-3-methyl-1-oxobutan-2-yl)carbamate]	18.8 ± 0.8	
CC(C)C[C@H](NC(=O)OCc1ccccc1)C(=O)NN(CCC(N)=O)C(=O)[C@H](C)Cl [MPI40, benzyl ((S)-1-(2-(3-amino-3-oxopropyl)-2-((S)-2-chloropropanoyl)hydrazineyl)-4-methyl-1-oxopentan-2-yl)carbamate]	1620 ± 153	
CC(C)C[C@H](NC(=O)OCc1ccccc1)C(=O)NN(CCC(N)=O)C(=O)CCl [MPI37, benzyl (S)-(1-(2-(3-amino-3-oxopropyl)-2-(2-chloroacetyl)hydrazineyl)-4-methyl-1-oxopentan-2-yl)carbamate]	64	
C=C(Cc1ccccc1)C(=O)N(CCC(N)=O)NC(=O)[C@H](CC(C)C)NC(=O)OCc1ccccc1 [MPI42, benzyl (S)-(1-(2-(3-amino-3-oxopropyl)-2-(2-benzylacryloyl)hydrazineyl)-4-methyl-1-oxopentan-2-yl)carbamate]	> 10000	
CC(C)C[C@H](NC(=O)OCc1ccccc1)C(=O)NN(CCC(N)=O)C(=O)COc1ccc(F)cc1 [MPI45, benzyl (S)-(1-(2-(3-amino-3-oxopropyl)-2-(2-(4-fluorophenoxy)acetyl)hydrazineyl)-4-methyl-1-oxopentan-2-yl)carbamate]	> 10000	
CC(C)C[C@H](NC(=O)OCc1ccccc1)C(=O)NN(CCC(N)=O)C(=O)/C=C/CN(C)C [MPI43, benzyl (S,E)-(1-(2-(3-amino-3-oxopropyl)-2-(4-(dimethylamino)but-2-enoyl)hydrazineyl)-4-methyl-1-oxopentan-2-yl)carbamate]	> 10000	
C[C@@H](OC(C)(C)C)[C@H](NC(=O)OCc1ccccc1)C(=O)N[C@@H](CC1CCCCC1)C(=O)NN(CCC(N)=O)C(=O)CCl [MPI53, benzyl ((2S,3R)-1-(((S)-1-(2-(3-amino-3-oxopropyl)-2-(2-chloroacetyl)hydrazineyl)-3-cyclohexyl-1-oxopropan-2-yl)amino)-3-(tert-butoxy)-1-oxobutan-2-yl)carbamate]	189	
CC1(C)[C@@H]2[C@@H](C(=O)N[C@H](C=O)C[C@@H]3CCNC3=O)N(C(=O)[C@H](Cc3ccccc3)NC(=O)OCc3ccccc3)C[C@@H]21 [MPI94, benzyl ((S)-1-((1R,2S,5S)-6,6-dimethyl-2-(((S)-1-oxo-3-((S)-2-oxopyrrolidin-3-yl)propan-2-yl)carbamoyl)-3-azabicyclo[3.1.0]hexan-3-yl)-1-oxo-3-phenylpropan-2-yl)carbamate]		IC50: 267 ± 44 nM
CC(C)C[C@H](NC(=O)OCc1ccccc1)C(=O)NN(CCC(N)=O)C(=O)COc1ccc([N+](=O)[O-])cc1 [MPI44, benzyl (S)-(1-(2-(3-amino-3-oxopropyl)-2-(2-(4-nitrophenoxy)acetyl)hydrazineyl)-4-methyl-1-oxopentan-2-yl)carbamate]	> 10000	
C[C@@H](OC(C)(C)C)[C@H](NC(=O)OCc1ccccc1)C(=O)N[C@@H](CC1CCCCC1)C(=O)N[C@@H](C[C@@H]1CCNC1=O)C(O)S(=O)(=O)O (stereo partly drawn) [MPI65, sodium (5S,8S,11S)-5-((R)-1-(tert-butoxy)ethyl)-8-(cyclohexylmethyl)-12-hydroxy-3,6,9-trioxo-11-(((S)-2-oxopyrrolidin-3-yl)methyl)-1-phenyl-2-oxa-4,7,10-triazadodecane-12-sulfonate]	294 ± 15	
C[C@@H](OC(C)(C)C)[C@H](NC(=O)OCc1ccc(F)cc1)C(=O)N[C@@H](CC1CCCCC1)C(=O)N[C@H](C=O)C[C@@H]1CCNC1=O [MPI103, 4-fluorobenzyl ((2S,3R)-3-(tert-butoxy)-1-(((S)-3-cyclohexyl-1-oxo-1-(((S)-1-oxo-3-((S)-2-oxopyrrolidin-3-yl)propan-2-yl)amino)propan-2-yl)amino)-1-oxobutan-2-yl)carbamate]	196 ± 31	
C[C@@H](OC(C)(C)C)[C@H](NC(=O)NC(C)(C)C)C(=O)N1C[C@H]2[C@@H]([C@H]1C(=O)N[C@H](C=O)C[C@@H]1CCNC1=O)C2(C)C [MPI68, (1R,2S,5S)-3-(O-(tert-butyl)-N-(tert-butylcarbamoyl)-L-threonyl)-6,6-dimethyl-N-((S)-1-oxo-3-((S)-2-oxopyrrolidin-3-yl)propan-2-yl)-3-azabicyclo[3.1.0]hexane-2-carboxamide]	97	
